Experimental findings from PubChem BioAssay (NCI) are described below.

Molecules are shown by their SMILES.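 A five-concentration, 48-hour dose response in 96-well plates underlies each endpoint, interpolated linearly between surrounding concentrations. Here, GI50 denotes the concentration required for 50% inhibition of growth. TGI is the concentration that stops growth completely.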

The first assay concerns HT29 colon. The experiment in a line: growth of human tumour cells (NCI), 48 h.
In turn, `c1ccc(SC2CCSc3ccccc3C2Sc2ccccc2)cc1` (stereo unspecified) had a TGI greater than 100 µM.

The compound `COC(=O)[C@]1(C)CCCC2(C)C1CC[C@H]1C=C(C)[C@H]3CCC12C3` (stereo partly specified) yielded a TGI greater than 100 µM.

With `O=C(Nc1cc(Cl)ccc1Cl)c1cc2cccc(Cl)c2oc1=O`, the TGI is greater than 100 µM.

`Cc1ccc(Cn2c(C)nc3c2C(=O)c2ccccc2C3=O)cc1` returned a TGI greater than 100 µM.

The compound `CCOC(=O)C(C)(C)Oc1ccc2c(C)c(-c3ccc(Cl)cc3)c(=O)oc2c1` displayed a TGI of 62.7 µM.

Turning to `Cc1c(Cl)cccc1N1C(=O)C(Cl)=C(Cl)C1=O`, the TGI was greater than 100 µM.

As to `COc1ccc(NC(=O)/C(N=O)=C(/C)O)cc1`, the TGI was greater than 100 µM.

In the case of `COc1cccc(/C=N/[N-]C(=O)c2ccncc2)c1[O-].[Cu+2].[OH3+]`, the GI50 is 43.8 µM and the TGI is greater than 100 µM.

Turning to `COc1ccc(C(O)c2nccn2C)c(OC)c1` (stereo unspecified), the TGI was greater than 100 µM.

Turning to `C1CSCCSCCS1`, the TGI is greater than 100 µM.

Consider `CCc1c(OC(C)=O)c2c(NC3OC(COC(C)=O)C(OC(C)=O)C(OC(C)=O)C3OC(C)=O)nc(OC)nc2oc1=O` (stereo unspecified), for which the TGI is greater than 100 µM.

In turn, `O=C(NC(=O)c1cn(CCNCCO)c(=O)[nH]c1=O)OCc1ccccc1` gave a TGI greater than 100 µM.

As to `O=[N+]([O-])c1ccc(-n2nnc(C3=NCCN3)c2-c2ccc(Cl)cc2)cc1`, the TGI was greater than 100 µM.

For the compound `CCSc1[nH]c(Nc2nc(-c3ccccc3)n(-c3ccccc3)n2)c(C(N)=O)c1C(N)=O`, the TGI was greater than 10 µM.

In turn, `CCC1C2C=CC(CC2)N1S(=O)(=O)c1ccc(C)cc1` (stereo unspecified) came in with a TGI of 42.1 µM.

`COc1ccc(-c2cc(-c3ccccc3)c(C#N)c(=O)n2C2OC(CO)C(O)C(O)C2O)cc1` (stereo unspecified): the TGI is greater than 100 µM.

`CCOC(=O)C1(c2ccccc2)CCC(=O)CC1` showed a TGI greater than 100 µM.

As for `O=C(N/N=C1/C(=O)N(c2ccc(Cl)cc2Cl)C(=O)C(=O)C1c1nc2ccccc2o1)c1ccccc1O` (stereo unspecified), the TGI was greater than 100 µM.

For `CC(=O)O[C@H]1CCC2[C@@H]3CCC4=C(O)c5nocc5C[C@]4(C)C3CC[C@@]21C` (stereo partly specified), the TGI is greater than 100 µM.

`O=C(O)CSc1n[nH]c(-c2ccccc2)n1` registered a TGI greater than 100 µM.

As to `O=c1cc2oc3cc(O)c(O)cc3c(-c3ccccc3O)c-2cc1O`, the GI50 was 44.4 µM and the TGI was greater than 100 µM.

As for `CCCCCCC[CH2][Sn]1([CH2]CCCCCCC)[O]C(=O)c2cccnc2[S]1`, the GI50 is greater than 100 µM and the TGI is greater than 100 µM.

`O=C1[C@@H]2C3c4ccccc4C([C@@H]2C(=O)N1c1ccccc1)S3(=O)=O`: the TGI is greater than 100 µM.

In the case of `COc1ccc(/C(=N\NC(=O)C(N)=O)C(c2ccc(OC)cc2)C2(O)C(=O)Nc3c(Cl)cccc32)cc1` (stereo unspecified), the TGI is greater than 100 µM.

The compound `Cc1ccc(S(=O)(=O)N/N=C/c2oc(-c3ccncc3)c(-c3ccncc3)c2[N+](=O)[O-])cc1` returned a TGI greater than 100 µM.

Take `CCc1cccc(C)c1NC(=O)C(=O)Cc1nc2ccccc2o1`: the TGI was greater than 100 µM.

Consider `O=C(O)[C@H](NS(=O)(=O)c1ccc2ccccc2c1)c1ccccc1`, for which the TGI is greater than 100 µM.

Compound `CCOc1ccc2c(c1)[n+]([O-])c(-c1ccccc1Cl)c(N)[n+]2[O-]` gave a TGI greater than 100 µM.

For `O=C1c2ccccc2C2(O)c3cc4ccccc4cc3OC12O` (stereo unspecified), the TGI is greater than 100 µM.

The compound `CN(C)c1c([O-])c(=[N+](C)C)c1=O` returned a TGI greater than 100 µM.

In another assay the test system is SR leukemia. Description: growth of human tumour cells (NCI), 48 h.
`COC(=O)[C@]1(C)CCCC2(C)C1CC[C@H]1C=C(C)[C@H]3CCC12C3` (stereo partly specified) registered a TGI greater than 100 µM.

Compound `O=c1n(-c2ccccc2)c(=O)n2n1C1C=CC2C2C(C1)C2(Cl)Cl` (stereo unspecified) came in with a TGI greater than 100 µM.

`Cc1ccc(Cn2c(C)nc3c2C(=O)c2ccccc2C3=O)cc1` had a TGI greater than 100 µM.

On to `CCOC(=O)C(C)(C)Oc1ccc2c(C)c(-c3ccc(Cl)cc3)c(=O)oc2c1`, for which the TGI was greater than 100 µM.

With `Cc1c(Cl)cccc1N1C(=O)C(Cl)=C(Cl)C1=O`, the TGI was 79.6 µM.

Compound `COc1ccc(NC(=O)/C(N=O)=C(/C)O)cc1` showed a TGI greater than 100 µM.

Regarding `COc1cccc(/C=N/[N-]C(=O)c2ccncc2)c1[O-].[Cu+2].[OH3+]`, the GI50 is 26.9 µM and the TGI turned out to be 92 µM.

As for `COc1ccc(C(O)c2nccn2C)c(OC)c1` (stereo unspecified), the TGI is greater than 100 µM.

Regarding `C1CSCCSCCS1`, the TGI was greater than 100 µM.

In turn, `O=C(NC(=O)c1cn(CCNCCO)c(=O)[nH]c1=O)OCc1ccccc1` came in with a TGI greater than 100 µM.

`O=[N+]([O-])c1ccc(-n2nnc(C3=NCCN3)c2-c2ccc(Cl)cc2)cc1` had a TGI greater than 100 µM.

As for `CCSc1[nH]c(Nc2nc(-c3ccccc3)n(-c3ccccc3)n2)c(C(N)=O)c1C(N)=O`, the TGI is greater than 10 µM.

Take `CCC1C2C=CC(CC2)N1S(=O)(=O)c1ccc(C)cc1` (stereo unspecified): the TGI amounted to 72.3 µM.

`COc1ccc(-c2cc(-c3ccccc3)c(C#N)c(=O)n2C2OC(CO)C(O)C(O)C2O)cc1` (stereo unspecified): the TGI is greater than 100 µM.

In turn, `O=C(N/N=C1/C(=O)N(c2ccc(Cl)cc2Cl)C(=O)C(=O)C1c1nc2ccccc2o1)c1ccccc1O` (stereo unspecified) showed a TGI greater than 100 µM.

For the compound `O=c1cc2oc3cc(O)c(O)cc3c(-c3ccccc3O)c-2cc1O`, the GI50 is 4.65 µM and the TGI was greater than 100 µM.

In the case of `CCCCCCC[CH2][Sn]1([CH2]CCCCCCC)[O]C(=O)c2cccnc2[S]1`, the GI50 is greater than 100 µM and the TGI was greater than 100 µM.

In the case of `O=C1[C@@H]2C3c4ccccc4C([C@@H]2C(=O)N1c1ccccc1)S3(=O)=O`, the TGI was greater than 100 µM.

Turning to `Cc1ccc(S(=O)(=O)N/N=C/c2oc(-c3ccncc3)c(-c3ccncc3)c2[N+](=O)[O-])cc1`, the TGI was greater than 100 µM.

On to `CCc1cccc(C)c1NC(=O)C(=O)Cc1nc2ccccc2o1`, for which the TGI is greater than 100 µM.

On to `CCOc1ccc2c(c1)[n+]([O-])c(-c1ccccc1Cl)c(N)[n+]2[O-]`, for which the TGI was greater than 100 µM.

Consider `CN(C)c1c([O-])c(=[N+](C)C)c1=O`, for which the TGI was greater than 100 µM.

Another assay deals with KM12 colon. Description: growth of human tumour cells (NCI), 48 h.
As to `c1ccc(SC2CCSc3ccccc3C2Sc2ccccc2)cc1` (stereo unspecified), the TGI was greater than 100 µM.

The compound `COC(=O)[C@]1(C)CCCC2(C)C1CC[C@H]1C=C(C)[C@H]3CCC12C3` (stereo partly specified) displayed a TGI greater than 100 µM.

As for `O=C(Nc1cc(Cl)ccc1Cl)c1cc2cccc(Cl)c2oc1=O`, the TGI is greater than 100 µM.
